Results taken from patent EP0120304A2, “Substituted 4,10-dihydro-10-oxothieno benzoxepins and intermediates thereof, a process for their preparation and their use as medicaments” (HOECHST-ROUSSEL PHARMACEUTICALS INCORPORATED, priority 1983, dated 1984).
Read-outs that look alike come from different tables or passages of the source.

Assays:
rat paw edema = assay: carrageenin induced rat paw edema anti-inflammatory assay; format: in vivo; details: for ED50: Rattus norvegicus
[1] = test system: 2-phenyl-1,4-benzoquinone-induced writhing; assay: 2-phenyl-1,4-benzoquinone-induced writhing test (analgesia); format: in vivo, mice; details: for ED50: Mus musculus, po
Excerpt: Compounds of the present invention are also useful as analgesic agents due to their ability to alleviate pain in mammals.

`CC(CO)c1ccc2c(c1)C(=O)c1sccc1CO2` (racemic) [(±)-2-(4,10-Dihydro-10-oxothieno[3,2-c][1]benzoxepin-8-yl)propanol] showed an ED50 (rat paw edema; 2 h, read-out: ED50 (mg/kg; 120 min.)) of 4.3 mg/kg and an ED50 ([1]; Phenylquinone Writhing, read-out: ED50 (mg/kg; p.o.)) of 4.3 mg/kg.
`CC(=O)OCCc1ccc2c(c1)C(=O)c1sccc1CO2` [2-(4,10-Dihydro-10-oxothieno[3,2-c][1]benzoxepin-8-yl) ethyl acetate] was tested, and the “ED50 (mg/kg; 120 min.)” value (rat paw edema) was 11.4 mg/kg.
For `O=C1c2cc(CCO)ccc2OCc2ccsc21` [(4,10-Dihydro-10-oxothieno[3,2-c][1]benzoxepin-8-yl) ethanol], the “ED50 (mg/kg; 120 min.)” value (rat paw edema) was 34.2 mg/kg and the “ED50 (mg/kg; p.o.)” value ([1]; p.o., Phenylquinone Writhing) was 19.7 mg/kg.
`CC(C)Cc1ccc(C(C)C(=O)O)cc1` (stereo not shown) [ibuprofen, reference compound] was tested, and the ED50 ([1]; orally, in a similar test, read-out: analgesic ED50) was 10.4 mg/kg.
`COc1ccc2c(c1)c(CC(=O)O)c(C)n2C(=O)c1ccc(Cl)cc1` [indomethacin, reference compound] gave an ED50 (rat paw edema; po, read-out: anti-inflammatory ED50) of 6 mg/kg.
